Assay results: patent publication US20250177269A1, “COMPOSITION FOR PROMOTING HAIR SPROUTING OR HAIR GROWTH CONTAINING A THYMOL ESTER-BASED COMPOUND” (AMOREPACIFIC CORPORATION, priority 2023, published 2025)

Test system: dermal papilla (DP) cells and outer root sheath (ORS) cells
Experiment: "Two-Cell Assemblage" Assay, hair growth-promoting efficacy
Type: cell-based
Settings: 10 ppm, 20 ppm; cultured for 5 days; vs. control
Procedure: The hair growth-promoting efficacy of 3,4,5-trimethoxycinnamate thymol ester (Melasolv) according to the concentration (10 ppm, 20 ppm) was evaluated using “Two-Cell Assemblage” Assay (“Two-Cell Assemblage” Assay: A Simple in vitro Method for Screening Hair Growth-Promoting Compounds) (Front Cell Dev Biol. 2020 Nov. 24; 8:581528).
The “Two-Cell Assemblage” Assay is an evaluation method that mimics the hair growth of actual hair follicles by co-culturing dermal papilla (DP) cells and outer root sheath (ORS) cells that constitute the hair follicle. That is, the length growth of the “Two-Cell Assemblage” structure has a mechanism similar to that of the actual hair follicle growth, and is being used as a new method of evaluating hair growth-promoting efficacy.
5,000 hair follicle dermal papilla cells were seeded on an ultra-low attachment 96-well plate to form 3D spheroids. After 24 hours, 5,000 outer root sheath cells (Kyungpook National University Industry-Academic Cooperation Foundation) were added together with the test substance to create a “Two-Cell assemblage” structure and cultured for 5 days under 37° C., 5% CO2 conditions. After culturing for 5 days, the length growth was measured using a microscope (OLYMPUS, SZX16) and shown in the Figure (* p<0.05, ** p<0.01, *** p<0.001 vs. control).

COc1cc(/C=C/C(=O)Oc2cc(C)ccc2C(C)C)cc(OC)c1OC [Melasolv, (5-methyl-2-propan-2-ylphenyl) (E)-3-(3,4,5-trimethoxyphenyl) prop-2-enoate]
length growth of the "Two-Cell Assemblage" structure (hair growth efficacy): significant level of length growth-promoting efficacy
